Results as given in US5444042A, “Method of treatment of neurodegeneration with calpain inhibitors” (Cortex Pharmaceuticals, priority 1994, dated 1995).

Experiments:
[1] = tested on: N18-RE-105 cells; test: Glutamate-induced cell death, MTT conversion (Example 5); type: cell-based; conditions: 5 mM glutamate, 19 hours; for blue formazan product relative to control without glutamate: inhibitor 3 μg/ml
Method: Stock cultures of N18-RE-105 cells were maintained in Dulbecco's modified Eagle's medium (DMEM) containing 10% fetal bovine serum (FBS) and supplemented with hypoxanthine, aminopterin and thymidine (HAT). Subconfluent cultures were split and plated into 96-well plates. Twenty-four hours after plating the cells were exposed to fresh media containing glutamate and various concentrations of Calpain inhibitors. Control cells were not treated with glutamate. Conversion of MTT was measured 19 hours later as described. Nineteen hours after the onset of exposure, cell viability was quantitated by measuring the extent to which the cells convert 3(4,5-dimethylthiazol-2-yl)-2-5-diphenyltetrazolium bromide (MTT) to a blue formazan product, which occurs in the mitochondria of living but not dead cells (Pauwels et al., 1988). A higher absorbance is indicative of greater cell viability.

[2] = molecular target: T1, Calpain I from human erythrocytes (Homo sapiens, UniProt P07384); test: Calpain I inhibition, Suc-Leu-Tyr-AMC (Table PKC1); type: biochemical; conditions: 20 mM Hepes, 10 mM CaCl2, 10 mM β-mercaptoethanol, pH 7.2; read-out: Ki CI (Calpain I)
T1 construct: Calpain I from human erythrocytes and calpain II from rabbit were assayed using Suc-Leu-Tyr-AMC; from tissue; host or cells: human erythrocytes
T1 sequence (P07384 1-714): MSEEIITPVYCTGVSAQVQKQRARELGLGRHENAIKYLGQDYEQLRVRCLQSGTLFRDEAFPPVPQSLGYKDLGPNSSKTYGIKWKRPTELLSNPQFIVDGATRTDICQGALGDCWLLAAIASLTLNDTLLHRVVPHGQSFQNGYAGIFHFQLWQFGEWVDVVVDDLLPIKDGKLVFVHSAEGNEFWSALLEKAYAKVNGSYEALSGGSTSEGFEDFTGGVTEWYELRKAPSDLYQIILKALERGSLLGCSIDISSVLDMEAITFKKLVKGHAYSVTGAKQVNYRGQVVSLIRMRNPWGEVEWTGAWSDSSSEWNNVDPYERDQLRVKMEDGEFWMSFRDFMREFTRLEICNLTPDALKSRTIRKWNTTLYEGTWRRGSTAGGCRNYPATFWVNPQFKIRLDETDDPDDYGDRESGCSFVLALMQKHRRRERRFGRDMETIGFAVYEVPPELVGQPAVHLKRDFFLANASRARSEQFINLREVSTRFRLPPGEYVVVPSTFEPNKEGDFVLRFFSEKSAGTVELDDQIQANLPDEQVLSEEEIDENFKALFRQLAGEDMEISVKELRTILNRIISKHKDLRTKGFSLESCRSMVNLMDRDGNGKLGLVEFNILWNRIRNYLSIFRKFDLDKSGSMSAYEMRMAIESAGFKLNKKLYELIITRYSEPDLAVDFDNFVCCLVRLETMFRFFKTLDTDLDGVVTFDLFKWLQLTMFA
T1 sequence (P04632 1-268 partner): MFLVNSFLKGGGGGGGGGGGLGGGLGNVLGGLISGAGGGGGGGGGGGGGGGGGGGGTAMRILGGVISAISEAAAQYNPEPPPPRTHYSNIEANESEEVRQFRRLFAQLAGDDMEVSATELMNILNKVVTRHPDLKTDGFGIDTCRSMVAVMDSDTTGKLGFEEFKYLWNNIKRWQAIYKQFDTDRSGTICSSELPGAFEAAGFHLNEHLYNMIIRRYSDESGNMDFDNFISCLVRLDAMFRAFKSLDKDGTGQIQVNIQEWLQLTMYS
Method: Our discovery of Peptide Keto-Compounds effective as Calpain Inhibitors was made through assay of the Peptide Keto-Compounds as reversible inhibitors. Various concentrations of inhibitors in dimethylsulfoxide (DMSO) were added to the assay mixture, which contained buffer and substrate. The reaction was started by the addition of the enzyme and the hydrolysis rates were followed spectrophotometrically or fluorimetrically. 88 mM KH2 PO4, 12 mM Na2 HPO4, 1.33 mM EDTA, 2.7 mM cysteine, pH 6.0 was used as a buffer for cathepsin B; and 20 mM Hepes, 10 mM CaCl2, 10 mM β-mercaptoethanol, pH 7.2 buffer was utilized for calpain I and calpain II.
All peptide thioester hydrolysis rates were measured with assay mixtures containing 4,4'-dithiodipyridine [e324=19800 M-1 cm-1; Grasetti & Murray, Arch. Biochem. Biophys. 119, pp 41-49 (1967)]. Papain was assayed with Bz-Arg-AMC or Bz-Arg-NA [Kanaoka et al., Chem. Pharm. Bull. 25, 3126-3128 (1977)], and the AMC (7-amino-4-methylcoumarin) release was followed fluorimetrically (excitation at 380 nm, and emission at 460 nm). Cathepsin B was assayed with Z-Arg-Arg-AFC [Barrett and Kirschke, Methods Enzymol. 80, 535-561 (1981)], and the AFC (7-amino-4-trifluoromethylcoumarin) release was followed fluorimetrically (excitation at 400 nm, and emission at 505 nm). Calpain I from human erythrocytes and calpain II from rabbit were assayed using Suc-Leu-Tyr-AMC [Sasaki et al., J. Biol. Chem. 259, 12489-12494 (1984), hereby incorporated by reference], and the AMC (7-amino-4-methylcoumarin) release was followed fluorimetrically (excitation at 380 nm, and emission at 460 nm). Enzymatic hydrolysis rates were measured at various substrate and inhibitor concentrations, and Ki values were determined by Dixon plot.

[3] = molecular target: T2, Cathepsin B from bovine spleen (Bos taurus, UniProt P07688); test: Cathepsin B Ki (Table 1B(i)); type: biochemical; conditions: substrate Z-Lys-4-nitrophenylphosphate
T2 construct: Cathepsin B from bovine spleen was assayed using Z-Lys-4-nitrophenylphosphate as substrate; from tissue; host or cells: bovine spleen
Method: (§1) The Peptide Keto-Compounds are reversible inhibitors of Calpains and other thiol proteases. […] Cathepsin B from bovine spleen was assayed using Z-Lys-4-nitrophenylphosphate as substrate.
(§2) The Ki value for the inhibition of Calpains and cathepsin B by several Peptide Keto-Compounds are shown in μM (micromolar). The values for leupeptin, which is commercially available from Calbiochem of La Jolla, Calif., are shown for comparison.

[4] = molecular target: Cathepsin B (Bos taurus, UniProt P07688); test: Cathepsin B KI (Table 1B(ii)); type: biochemical; conditions: read-out: KI CathB
From the text: (§3) We tested the ability of an additional group of Peptide Keto-Compounds to inhibit several proteases in order to evaluate their specificity for Calpain.

[5] = molecular target: Chym (Bos taurus, UniProt P00766); test: Chym KI (Table 1B(ii)); type: biochemical
From the text: as §3

[6] = molecular target: T3, Papain (Carica papaya, UniProt P00784); test: Papain KI (Table 1B(ii)); type: biochemical
T3 sequence (P00784 134-345): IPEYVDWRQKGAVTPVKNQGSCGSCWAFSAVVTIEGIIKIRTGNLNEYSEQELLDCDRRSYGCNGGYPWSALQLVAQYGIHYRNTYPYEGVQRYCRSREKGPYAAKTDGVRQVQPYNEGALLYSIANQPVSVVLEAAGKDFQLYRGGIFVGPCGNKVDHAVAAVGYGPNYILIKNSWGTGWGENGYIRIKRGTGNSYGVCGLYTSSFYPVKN
From the text: as §3

[7] = molecular target: T1, Calpain I from human erythrocytes; test: Calpain I Ki (Table 1B(i)); type: biochemical; conditions: Suc-Leu-Tyr-amidomethylcoumarin, HEPES pH 7.2
Method: as §1, §2

`N=C(N)SCCCOc1oc(=O)c2cc(N)ccc2c1Cl` [NH2 -CiTPrOIC (ACITIC), 7-amino-4-chloro-3-(3-isothiureidopropoxy)isocoumarin] was tested, and the “blue formazan product relative to control without glutamate” value [1] was at least 100%.
`CCOC(=O)C(=O)C(Cc1ccccc1)NC(=O)C(CC(C)C)NC(=O)OCc1ccccc1` (stereo not drawn) [Z-Leu-Phe-COOEt] gave a Ki [2] of 0.23 µM, a Ki [3] of over 50 µM and a Ki [4] of 340 µM. For the same compound, the Ki [5] was 0.025 µM and the Ki [6] was 75 µM.
With `CCOC(=O)C(=O)C(CC)NC(=O)[C@H](C)NC(=O)[C@H](C)NC(=O)OCc1ccccc1` (mixture of isomers) [Z-Ala-Ala-DL-Abu-COOEt, Z-Ala-Ala-DL-Abu-CO2 Et] the Ki [2] was 50 µM, the Ki [7] was 50 µM and the “blue formazan product relative to control without glutamate” value [1] was at least 100%.
Compound `CCC(NC(=O)[C@@H]1CCCN1C(=O)[C@H](C)NC(=O)[C@H](C)NC(=O)CCC(=O)OC)C(=O)C(=O)OC` (mixture of isomers) [MeO-Suc-Ala-Ala-Pro-Abu-COOMe, MeO-Suc-Ala-Ala-Pro-DL-Abu-CO2 Me] has a Ki [2] of 100 µM.
In the case of `CC(=O)N[C@@H](CC(C)C)C(=O)N[C@@H](CC(C)C)C(=O)N[C@H](C=O)CCCNC(=N)N` [Leupeptin, Ac-Leu-Leu-Arg-H, reference compound], the Ki [7] is reported as 0.32 µM, the Ki [3] is reported as 6 µM and the “protection against glutamate toxicity” value ([1]; leupeptin 5 μg/ml) is reported as “protect N18-RE-105 cells against glutamate toxicity”.
`CCOC(=O)C(=O)[C@H](CC)NC(=O)[C@H](CC(C)C)NC(=O)OCc1ccccc1` (racemic) [Z-Leu-Abu-COOEt, Z-Leu-DL-Abu-COOEt] showed a Ki [2] of 0.04 µM, a Ki [7] of 0.04 µM and a Ki [3] of 14 µM. For the same compound, the Ki [4] was 30 µM, the Ki [5] was over 100 µM and the Ki [6] was 220 µM.
For `N=C(N)SCCCOc1oc(=O)c2ccccc2c1Cl` [CiTprOIC, 4-chloro-3-(3-isothiureidopropoxy)isocoumarin], the “blue formazan product relative to control without glutamate” value [1] was at least 100%.
For `CCCC(NC(=O)[C@H](CC(C)C)NC(=O)OCc1ccccc1)C(=O)C(=O)OCC` (mixture of isomers) [Z-Leu-Nva-COOEt, Z-Leu-DL-Nva-COOEt], the Ki [3] was 30 µM, the Ki [4] was 25 µM and the Ki [5] was 160 µM. It also gave a Ki [6] of 150 µM.
`CCCCC(NC(=O)C(CC(C)C)NC(=O)OCc1ccccc1)C(=O)C(=O)OCC` (stereo not drawn) [Z-Leu-Nle-COOEt, Z-Leu-NLeu-CO2 Et] showed a Ki [2] of 0.12 µM, a Ki [3] of 18 µM and a Ki [4] of 20 µM. It also gave a Ki [6] of 190 µM.
